From patent US20130281409A1, “Myelin Sheath Fatty Acids that Resolve Neuroinflammation” (priority 2012, published 2013)

What was measured:
CD4+ T cells = assay: CD69 expression on lymph node cells from PGPC-treated EAE mice (flow cytometry); type: in vivo, mouse; details: lymph node cells of prophylactically treated EAE mice, cultured 4 days with 10 μg/ml PLP139-151
Description: FIG. 9. PGPC treatment of mice with EAE suppresses T-cell activation. (A) Expression of CD69 (an early marker of activation) on CD4+ and CD8+ propidium iodide-negative (i.e. live) lymphocytes isolated from PGPC—or vehicle-treated EAE mice and cultured for 4 days with 10 μg/ml of PLP139-151. The ratio of CD69+CD4+:CD69−CD4+ is 14.2%:39.6% for lymph node cells from vehicle-treated EAE mice, and 7.96%:55.2% for cells from PGPC-treated EAE mice. […] (B) Proliferation and (C) cytokine production of splenocytes isolated from the vehicle- or PGPC-treated EAE mice in panel A. Splenocytes from PGPC-treated mice (gray bars) secreted lower levels of IFN-γ and TNF in response to PLP139-151. *P<0.05, respectively, by Student's t-test comparing PLP139-151-stimulated cells from PGPC-treated mice with PLP139-151-stimulated cells from vehicle-treated mice.
PLP-stimulated cells from PLP139-151-immunized mice administered PGPC prophylactically: SJL/J mice were co-injected with PGPC and PLP139-151 in CFA and sacrificed 48 days later. Lymph node cells and splenocytes were then harvested and re-stimulated in vitro (2.5×10^6 cells/ml) with 10 μg/ml of PLP139-151 or with media alone. […]
Cells were stained according to standard protocols, run on a FACScan flow cytometer (BD Biosciences), and analysed with CellQuest software (BD Immunocytometry Systems) or with FlowJo software version 6.3.2 (Tree Star, Inc.). […]

[1] = tested on: EAE in PLP139-151-immunized SJL/J mice; assay: EAE, lipid administered prophylactically (co-immunization with PLP139-151); type: in vivo, mouse; details: 6 μg/injection; s.c. with PLP139-151 on day 0, i.p. on days 4 and 7
Description: Animal experiments were approved by, and performed in compliance with, the National Institute of Health guidelines of the Institutional Animal Care and Use Committee at Stanford University. For induction of EAE, 8- to 12-week-old female SJL/J mice (Jackson Laboratory) were immunized subcutaneously with 100 μg of PLP139-151 emulsified in CFA (Difco Laboratories). Three injections of PGPC (6 μg/mouse/injection) or vehicle (0.05% Tween-20 in PBS) were delivered on days 0, 4, and 7 after immunization with PLP139-151. On day 0, the lipid or vehicle was emulsified together with PLP139-151 in CFA and administered by subcutaneous injection. At subsequent time points, lipid or vehicle was injected intraperitoneally. EAE was assessed as previously described. To induce EAE in SJL/J mice (Jackson Mice), we immunized 8- to 12-week-old female animals subcutaneously with 100 μg of PLP139-151 emulsified in CFA (Difco Laboratories). Prophylactic administration of lipid: Three injections of PGPC or sphingomyelin (6 μg/mouse/injection) or vehicle (0.05% Tween-20 in PBS) were delivered on days 0, 4, and 7 after immunization with PLP139-151. […] Clinical disease was monitored daily using the following scoring system: 0, no disease; 1, limp tail; 2, hind limb weakness; 3, hind limb paralysis; 4, hind limb and forelimb paralysis; 5, death. […]

B cells = assay: Apoptosis of anti-IgM F(ab')2/anti-CD40-stimulated purified B cells; type: cell-based, mouse; details: 30 μg/ml lipid, anti-IgM F(ab')2 and anti-CD40, 48 hours
Description: Anti-IgM F(ab′)2 fragment/anti-CD40-stimulated purified B cells: We harvested spleens from naive C57BL/6 mice and used a B-cell isolation kit (Miltenyi Biotec) to negatively isolate B cells. We then stimulated 5×10^5 cells/ml of B cells with 5 μg/ml of each of soluble anti-IgM F(ab′)2 fragment (Jackson ImmunoResearch) antibody and anti-CD40 antibody (eBioscience) in the presence of 30 μg/ml of POPS, PGPC, azPC ester, or azPC.
Cells were stained according to standard protocols, run on a FACScan flow cytometer (BD Biosciences), and analysed with CellQuest software (BD Immunocytometry Systems) or with FlowJo software version 6.3.2 (Tree Star, Inc.). The antibody conjugates used were FITC anti-CD4 (clone GK1.5, BD Pharmingen), FITC anti-mouse CD8 (clone 53-6.7, BD Pharmingen), FITC anti-mouse CD3 (clone 145-2C11, eBioscience), PE-anti-rat IgG2A isotype control (BD Pharmingen), and PE-anti-mouse CD69 (clone H1.2F3, eBioscience). 7AAD staining was performed by using the Annexin V-PE Apoptosis Detection Kit I (BD Pharmingen).

Structure (SMILES)	CD4+CD69+ cells (CD4+ T cells) [%]	CD69−CD4+ cells (CD4+ T cells) [%]	EAE severity (clinical score) [1]	apoptosis of activated B cells (B cells)
CCCCCCCCCCCCCCCC(=O)OC[C@H](COP(=O)([O-])OCC[N+](C)(C)C)OC(=O)CCCC(=O)O [PGPC, 1-Palmitoyl-2-Glutaroyl-sn-Glycero-3-Phosphocholine]	7.96	55.2	reduced the severity of EAE	
CCCCCCCC/C=C\CCCCCCCC(=O)O[C@H](COC(=O)CCCCCCCCCCCCCCC)COP(=O)(O)OC[C@H](N)C(=O)O [POPS, 1-Palmitoyl-2-Oleoyl-sn-Glycero-3-[Phospho-L-Serine]]				increased apoptosis
